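Five compound concentrations were applied to cells in 96-well plates for 48 hours; endpoints were derived by simple linear interpolation of the resulting dose-response curve. GI50: concentration for 50% inhibition of growth.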 The source made the active and inactive calls. Rule as the data show it: active = GI50 up to about 1.1 µM and inactive = higher.
Experiments:
Test in all cases: NCI anticancer screen, dose series, 48 h
[1] = tested on: NCI-H23
[2] = tested on: RPMI-8226
[3] = tested on: NCI-H522
[4] = tested on: A549
[5] = tested on: NCI-H226
[6] = tested on: HCT-116
[7] = tested on: SF-295
[8] = tested on: KM-20L2
[9] = tested on: HOP-62
[10] = tested on: DMS-114
[11] = tested on: SF-268
[12] = tested on: A498
[13] = tested on: MOLT-4
[14] = tested on: XF498
[15] = tested on: MCF7
[16] = tested on: CCRF-CEM
[17] = tested on: HCT-15
[18] = tested on: DLD-1
[19] = tested on: SK-MEL-5
[20] = tested on: SF-539
[21] = tested on: UACC-257
[22] = tested on: Malme-3M
[23] = tested on: COLO 205
[24] = tested on: NCI-H460
[25] = tested on: UO-31
[26] = tested on: HOP-92
[27] = tested on: RXF 393
[28] = tested on: HL-60
[29] = tested on: HOP-18
[30] = tested on: SK-MEL-2
[31] = tested on: U-251
[32] = tested on: UACC-62
[33] = tested on: OVCAR-4
[34] = tested on: OVCAR-5
[35] = tested on: SK-MEL-28
[36] = tested on: NCI/ADR-RES
[37] = tested on: K562
[38] = tested on: SNB-75
[39] = tested on: IGROV-1
[40] = tested on: SNB-19
[41] = tested on: OVCAR-8
[42] = tested on: HCC 2998
[43] = tested on: DMS-273
[44] = tested on: HT-29
[45] = tested on: M19-MEL
[46] = tested on: OVCAR-3
[47] = tested on: SN12C
[48] = tested on: SW-620
[49] = tested on: EKVX
[50] = tested on: KM12
[51] = tested on: CAKI-1
[52] = tested on: LOX IMVI
[53] = tested on: SK-OV-3
[54] = tested on: ACHN
[55] = tested on: LXFL 529
[56] = tested on: TK-10
[57] = tested on: SNB-78
[58] = tested on: 786-0
[59] = tested on: M14
[60] = tested on: SR

Cc1ccc(N(O)C(C)(C)C)cc1
GI50 [1]: > 100 µM (inactive)
GI50 [2]: > 100 µM (inactive)
GI50 [3]: > 100 µM (inactive)
GI50 [4]: > 100 µM (inactive)
GI50 [5]: > 100 µM (inactive)
GI50 [6]: > 100 µM (inactive)
GI50 [7]: > 100 µM (inactive)
GI50 [8]: > 100 µM (inactive)
GI50 [9]: > 100 µM (inactive)
GI50 [10]: > 100 µM (inactive)
GI50 [11]: > 100 µM (inactive)
GI50 [12]: > 100 µM (inactive)
GI50 [13]: > 100 µM (inactive)
GI50 [14]: > 100 µM (inactive)
GI50 [15]: > 100 µM (inactive)
GI50 [16]: > 100 µM (inactive)
GI50 [17]: > 100 µM
GI50 [18]: > 100 µM (inactive)
GI50 [19]: > 100 µM (inactive)
GI50 [20]: > 100 µM (inactive)
GI50 [21]: > 100 µM (inactive)
GI50 [22]: > 100 µM (inactive)
GI50 [23]: > 100 µM (inactive)
GI50 [24]: > 100 µM (inactive)
GI50 [25]: > 100 µM (inactive)
GI50 [26]: > 100 µM (inactive)
GI50 [27]: > 100 µM (inactive)
GI50 [28]: > 78.3 µM (inactive)
GI50 [29]: > 100 µM (inactive)
GI50 [30]: > 100 µM (inactive)
GI50 [31]: > 100 µM (inactive)
GI50 [32]: > 100 µM (inactive)
GI50 [33]: > 100 µM (inactive)
GI50 [34]: > 100 µM (inactive)
GI50 [35]: > 100 µM (inactive)
GI50 [36]: > 100 µM (inactive)
GI50 [37]: > 100 µM (inactive)
GI50 [38]: > 100 µM (inactive)
GI50 [39]: > 100 µM (inactive)
GI50 [40]: > 100 µM (inactive)
GI50 [41]: > 100 µM (inactive)
GI50 [42]: > 100 µM (inactive)
GI50 [43]: > 100 µM (inactive)
GI50 [44]: > 100 µM (inactive)
GI50 [45]: > 100 µM (inactive)
GI50 [46]: > 100 µM (inactive)
GI50 [47]: > 100 µM (inactive)
GI50 [48]: > 100 µM (inactive)
GI50 [49]: > 100 µM (inactive)
GI50 [50]: > 100 µM (inactive)
GI50 [51]: > 100 µM (inactive)
GI50 [52]: > 100 µM (inactive)
GI50 [53]: > 100 µM (inactive)

c1cc2nnsc2s1
GI50 [1]: > 100 µM (inactive)
GI50 [2]: 93.5 µM (inactive)
GI50 [3]: > 100 µM (inactive)
GI50 [5]: > 100 µM (inactive)
GI50 [7]: > 100 µM (inactive)
GI50 [8]: > 100 µM (inactive)
GI50 [9]: > 100 µM (inactive)
GI50 [11]: > 100 µM (inactive)
GI50 [12]: > 100 µM (inactive)
GI50 [13]: > 100 µM (inactive)
GI50 [14]: > 100 µM (inactive)
GI50 [16]: > 100 µM (inactive)
GI50 [17]: > 100 µM
GI50 [18]: 60.4 µM (inactive)
GI50 [19]: > 100 µM (inactive)
GI50 [20]: > 100 µM (inactive)
GI50 [21]: > 100 µM (inactive)
GI50 [22]: > 100 µM (inactive)
GI50 [23]: 42.3 µM (inactive)
GI50 [24]: > 100 µM (inactive)
GI50 [25]: > 100 µM (inactive)
GI50 [26]: > 100 µM (inactive)
GI50 [28]: > 100 µM (inactive)
GI50 [54]: > 100 µM (inactive)
GI50 [55]: 90.8 µM (inactive)
GI50 [29]: > 100 µM (inactive)
GI50 [30]: > 100 µM (inactive)
GI50 [31]: > 100 µM (inactive)
GI50 [32]: > 100 µM (inactive)
GI50 [33]: > 100 µM (inactive)
GI50 [56]: > 100 µM (inactive)
GI50 [34]: > 100 µM (inactive)
GI50 [35]: > 100 µM (inactive)
GI50 [37]: > 100 µM (inactive)
GI50 [38]: > 100 µM (inactive)
GI50 [39]: > 100 µM (inactive)
GI50 [40]: > 100 µM (inactive)
GI50 [41]: > 100 µM (inactive)
GI50 [42]: > 100 µM (inactive)
GI50 [43]: 70.6 µM (inactive)
GI50 [44]: > 100 µM (inactive)
GI50 [45]: > 100 µM (inactive)
GI50 [47]: > 100 µM (inactive)
GI50 [48]: 39.2 µM (inactive)
GI50 [49]: > 100 µM (inactive)
GI50 [50]: > 100 µM (inactive)
GI50 [51]: > 100 µM (inactive)
GI50 [52]: 60 µM (inactive)
GI50 [57]: > 100 µM (inactive)
GI50 [58]: 44.5 µM (inactive)
GI50 [59]: > 100 µM (inactive)
GI50 [53]: > 100 µM (inactive)

CC1C(c2ccccc2)=CCON1c1ccccc1 (centres undefined)
GI50 [1]: > 100 µM (inactive)
GI50 [2]: > 100 µM (inactive)
GI50 [3]: > 100 µM (inactive)
GI50 [4]: > 100 µM (inactive)
GI50 [5]: > 100 µM (inactive)
GI50 [6]: > 100 µM (inactive)
GI50 [7]: > 100 µM (inactive)
GI50 [8]: > 100 µM (inactive)
GI50 [9]: > 100 µM (inactive)
GI50 [10]: > 100 µM (inactive)
GI50 [11]: > 100 µM (inactive)
GI50 [13]: > 100 µM (inactive)
GI50 [14]: > 100 µM (inactive)
GI50 [16]: > 100 µM (inactive)
GI50 [17]: > 100 µM
GI50 [18]: > 100 µM (inactive)
GI50 [19]: > 100 µM (inactive)
GI50 [20]: > 100 µM (inactive)
GI50 [21]: > 100 µM (inactive)
GI50 [22]: > 100 µM (inactive)
GI50 [23]: > 100 µM (inactive)
GI50 [24]: > 100 µM (inactive)
GI50 [25]: > 100 µM (inactive)
GI50 [27]: > 100 µM (inactive)
GI50 [28]: > 100 µM (inactive)
GI50 [54]: > 100 µM (inactive)
GI50 [55]: > 100 µM (inactive)
GI50 [30]: > 100 µM (inactive)
GI50 [31]: > 100 µM (inactive)
GI50 [32]: > 100 µM (inactive)
GI50 [33]: > 100 µM (inactive)
GI50 [34]: > 100 µM (inactive)
GI50 [35]: > 100 µM (inactive)
GI50 [37]: > 100 µM (inactive)
GI50 [38]: > 100 µM (inactive)
GI50 [39]: > 100 µM (inactive)
GI50 [40]: > 100 µM (inactive)
GI50 [41]: > 100 µM (inactive)
GI50 [42]: > 100 µM (inactive)
GI50 [44]: > 100 µM (inactive)
GI50 [45]: > 100 µM (inactive)
GI50 [46]: > 100 µM (inactive)
GI50 [47]: > 100 µM (inactive)
GI50 [48]: > 100 µM (inactive)
GI50 [49]: > 100 µM (inactive)
GI50 [50]: > 100 µM (inactive)
GI50 [51]: > 100 µM (inactive)
GI50 [52]: > 100 µM (inactive)
GI50 [57]: > 100 µM (inactive)
GI50 [58]: > 100 µM (inactive)
GI50 [59]: > 100 µM (inactive)
GI50 [60]: > 100 µM (inactive)
GI50 [53]: > 100 µM (inactive)

COc1cc(/N=N\c2cccc(S(=O)(=O)O)c2)c(C)cc1/N=N\c1ccc(/C=C/c2ccc(/N=[N+](/[O-])c3ccc(/C=C/c4ccc(/N=N\c5cc(C)c(/N=N/c6cccc(S(=O)(=O)O)c6)cc5OC)cc4)c(S(=O)(=O)O)c3)cc2S(=O)(=O)O)cc1
GI50 [1]: > 100 µM (inactive)
GI50 [3]: > 93.5 µM (inactive)
GI50 [4]: > 100 µM (inactive)
GI50 [5]: > 100 µM (inactive)
GI50 [6]: > 100 µM (inactive)
GI50 [7]: > 100 µM (inactive)
GI50 [8]: > 100 µM (inactive)
GI50 [9]: > 100 µM (inactive)
GI50 [10]: > 100 µM (inactive)
GI50 [11]: > 100 µM (inactive)
GI50 [12]: > 100 µM (inactive)
GI50 [13]: > 100 µM (inactive)
GI50 [14]: > 100 µM (inactive)
GI50 [15]: > 100 µM (inactive)
GI50 [16]: > 100 µM (inactive)
GI50 [17]: > 100 µM
GI50 [18]: > 100 µM (inactive)
GI50 [19]: > 100 µM (inactive)
GI50 [20]: > 100 µM (inactive)
GI50 [21]: > 100 µM (inactive)
GI50 [22]: > 100 µM (inactive)
GI50 [23]: > 100 µM (inactive)
GI50 [24]: > 100 µM (inactive)
GI50 [25]: > 100 µM (inactive)
GI50 [26]: > 77.3 µM (inactive)
GI50 [27]: > 100 µM (inactive)
GI50 [28]: > 100 µM (inactive)
GI50 [29]: > 100 µM (inactive)
GI50 [30]: > 100 µM (inactive)
GI50 [31]: > 100 µM (inactive)
GI50 [32]: > 100 µM (inactive)
GI50 [33]: > 66.7 µM (inactive)
GI50 [34]: > 84.5 µM (inactive)
GI50 [35]: > 100 µM (inactive)
GI50 [36]: > 100 µM (inactive)
GI50 [37]: > 100 µM (inactive)
GI50 [38]: > 100 µM (inactive)
GI50 [39]: > 100 µM (inactive)
GI50 [40]: > 100 µM (inactive)
GI50 [41]: > 100 µM (inactive)
GI50 [42]: > 100 µM (inactive)
GI50 [43]: > 100 µM (inactive)
GI50 [44]: > 100 µM (inactive)
GI50 [45]: > 100 µM (inactive)
GI50 [46]: > 100 µM (inactive)
GI50 [47]: > 100 µM (inactive)
GI50 [48]: > 100 µM (inactive)
GI50 [49]: > 100 µM (inactive)
GI50 [50]: > 100 µM (inactive)
GI50 [52]: > 100 µM (inactive)
GI50 [53]: > 100 µM (inactive)
